What all share (assay type): cell-based
In assay [1] the test system is MIA PaCa-2 cells. In words: KP372-1 + BMN 673 combination survival / synergy (CompuSyn). Particulars: Fa=0.9; 0.075 μM KP372-1 + 1 μM BMN 673 in combination. As for the experimental part: DNA content assay: A modified cell survival assay measuring DNA content over ˜7-day period was utilized. Cells were seeded at 10,000 cells/well in 48-well plates in 0.5 mL of media. The next day, media were aspirated and replaced with 0.5 mL media containing the indicated concentrations of KP372-1 (μM) alone or in combination with 50 μM DIC. The cells were exposed for 2 hours (2 h) and the media were again aspirated and replaced with fresh media (without KP372-1). The cells were then allowed to grow for ˜7 days or until control samples became confluent. Cells were then lysed in 250 μl dI water, then freeze-thawed followed by suspension in 0.5 mL 1× TNE buffer containing Hoechst 33258 fluorescent dye. The DNA content was determined by measuring florescence signal using a Victor X5 plate reader. Fluorescence values of treated samples were normalized to that of control samples and plotted as means±SEM for treated over control (i.e., DMSO) treated (T/C) samples. […]
Synergy calculations: Drug synergy was calculated using CompuSyn 1.0 software (www.combosyn.com). […] Then, cell survival was assessed via DNA content assay similarly to as described above. […] Dose-Reduction Index (DRI) values were calculated using the Chou-Talalay method. Briefly, DRI values are calculated using the following equation: DRI=(Dx)1/(D)1 where (Dx)1 is the dose of the drug alone and (D)1 is the dose of the drug in combination. […]

Assay [2] concerns Capan-2 cells. Briefly: DNA content assay (relative survival), Capan-2. Particulars: 2 h.
Method: (§1) DNA content assay: A modified cell survival assay measuring DNA content over ˜7-day period was utilized. Cells were seeded at 10,000 cells/well in 48-well plates in 0.5 mL of media. […] The cells were exposed for 2 hours (2 h) and the media were again aspirated and replaced with fresh media (without KP372-1). The cells were then allowed to grow for ˜7 days or until control samples became confluent. […] The DNA content was determined by measuring florescence signal using a Victor X5 plate reader. Fluorescence values of treated samples were normalized to that of control samples and plotted as means±SEM for treated over control (i.e., DMSO) treated (T/C) samples. The reported values are the results of the following sample sizes for KP372-1±DIC: MIA PaCa-2 concentration (n=5); Capan-2 concentration (n=3); MIA PaCa-2±siSCR/siNQO1 (n=3); hTERT-HPNE (n=3); PANC-1 (n=3); AsPC-1 (n=4); BxPC-3 (n=3); MIA PaCa-2 time (n=3); Capan-2 time (n=3). The reported values are the results of the following sample sizes for β-lap±DIC: MIA PaCa-2 (n=4) and Capan-2 (n=4).
For assay [3], the system named is MIA PaCa-2 cells. In words: DNA content assay (relative survival), MIA PaCa-2. Particulars: 2 h.
Method: as §1

As to `Cn1ncnc1[C@H]1c2n[nH]c(=O)c3cc(F)cc(c23)N[C@@H]1c1ccc(F)cc1` [BMN 673, talazoparib], in assay [1], the “dose reduction index (DRI)” value is recorded as 3.99.

On to `CC1(C)CCC2=C(O1)c1ccccc1C(=O)C2=O` [β-lap, β-lapachone], for which the “concentration up to which no appreciable toxicity was induced” value in assay [2] is on record as “up to 1.0 μM”; in assay [3], “up to 2.0 μM”.

The values are drawn from US12128050B2, “KP372-1-induced DNA damage as a chemotherapeutic approach to treat cancer” (New Mexico Tech University Research Park Corporation, priority 2020, dated 2024).
